Series [1] has as its target T1, xanthine oxidase (derived from butter milk) (Bos taurus, UniProt P80457).
T1 construct: xanthine oxidase (derived from butter milk, manufactured by Sigma); purchased Sigma; host or cells: butter milk (natural source)
Briefly: Xanthine oxidase-inhibitory activity (pterin oxidation, fluorescence). The note with it: pterin 5 μM, room temperature; read-out: IC50 (xanthine oxidase inhibition). It is filed as biochemical. The procedure: A test compound was dissolved in DMSO (manufactured by Nakarai) so as to be a concentration of 10 mM and then used after the concentration was adjusted to an aimed one at use.
The evaluation of xanthine oxidase-inhibitory activity of the compound of the invention was carried out using a method described in a document (Free Radic. Biol. Med. 6, 607-615, 1992) with partial modification. Namely, xanthine oxidase (derived from butter milk, manufactured by Sigma) was adjusted to 0.03 units/ml using a 50 mM phosphate buffer and was added to a 96-well plate in an amount of 50 μl/well. Each test compound diluted so as to be a final concentration was added thereto in an amount of 2 μl/well, followed by treatment at room temperature for 20 minutes. Pterin (manufactured by Sigma) was added thereto so as to be a final concentration of 5 μM, followed by reaction at room temperature for 10 minutes. Measurement was performed using a microplate reader saphire (manufactured by Tecan) under conditions of excitation at 345 nm and emission at 390 nm (pterin was oxidized by xanthine oxidase into isoxanthopterin, which emitted a light under the conditions).
The concentration of the test compound at which 50% inhibition was observed (IC50 value) was calculated, the emissions of isoxanthopterin under conditions of the presence or absence of xanthine oxidase being 0% inhibition and 100% inhibition, respectively.

Series [2] deals with VEGF mRNA in the vitreous body. Briefly: Diabetic retinopathy model (streptozotocin), VEGF mRNA in the vitreous body. It is filed as in vivo, male Wistar rat. To be noted: 30 mg/kg oral once a day for 7 days, STZ rats, vs control group. The method, then: The efficiency of the compound of the invention on diabetic retinopathy was tested by the method described in European Journal of Pharmacology 458 (2003) 283-289 (except that the animal used in the experiment was male Wistar rat, 10 weeks old).
Streptozotocin (STZ) was administered to the animals to be tested and increase in blood sugar level was confirmed after 24 hours. Thereafter, the animals were divided into a 0.5% methyl cellulose-administered group (control group) and 30 mg/kg test compound-administered group and oral administration was performed once a day for 7 days.

The test system of another series is TNBS-induced enteritis. Briefly: Trinitrobenzenesulfonic acid-induced enteritis-inhibitory action. The note with it: 3 mg/kg oral once a day, dissection on 21st day, Wistar rat. Type of series: in vivo, male Wistar rats. The method, then:
The effectiveness of the compound of the invention on an enteritis model can be also evaluated by a model using trinitrobenzenesulfonic acid (TNBS) as an inducing agent instead of acetic acid (Cell. Mol. Biol, 38, 189-199, 1992). Thus, referring to the method described in the report, the enteritis-suppressing action of the compound of the invention was evaluated.
Namely, TNBS or physiological saline as a normal group was administered into the rectum of male Wistar rats of 200 to 250 g. Thereafter, a test compound or 0.5% methyl cellulose (control group) was orally administered once a day and dissection was performed on each administered group on 21st day. A part of the large intestine 2 to 7 cm from the anus side was cut out and incised. After feces were removed by means of tweezers, the part was washed and a score of morbid conditions was evaluated and tissue weight was measured. The score of morbid conditions and a tissue weight increase-suppressing ratio were calculated as in the evaluation method of the above acetic acid-induced enteritis-suppressing action.

Series [3] deals with pyrimidine synthetic pathway (BUN level). Briefly: Pyrimidine synthetic pathway-inhibitory action (influence on BUN level). Type of series: in vivo. The note with it: oral administration of 30 mg/kg. An excerpt: Allopurinol which is an existing hyperuricemia therapeutic drug is known to cause renal dysfunction as an undesirable action. As mentioned previously, since allopurinol has a nucleic acid-like structure, as one cause thereof, it is presumed that it inhibits pyrimidine synthetic pathway. […] Thus, according to the method described in the document, the influence of the compounds of the invention on a BUN level was confirmed.

For a further series, the target named is T2, AKR1C3 (17βHSD5) (Homo sapiens, UniProt P42330).
T2 sequence (P42330 1-323): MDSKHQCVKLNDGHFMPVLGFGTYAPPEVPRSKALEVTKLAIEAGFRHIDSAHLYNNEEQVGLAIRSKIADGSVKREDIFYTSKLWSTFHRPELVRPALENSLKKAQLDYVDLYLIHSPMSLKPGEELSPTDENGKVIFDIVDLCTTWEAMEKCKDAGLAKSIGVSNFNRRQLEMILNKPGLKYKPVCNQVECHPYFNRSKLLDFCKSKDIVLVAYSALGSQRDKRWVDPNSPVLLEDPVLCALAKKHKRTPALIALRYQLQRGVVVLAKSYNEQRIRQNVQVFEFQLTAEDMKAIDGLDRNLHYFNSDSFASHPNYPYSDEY
Briefly: AKR1C3 inhibitory action (DELFIA Testosterone Reagents). Type of series: biochemical. The note with it: read-out: IC50 (AKR1C3 inhibition). An excerpt:
AKR1C3 known as a molecule belonging to aldo-keto reductase is known as a multifunctional enzyme (Jikken Igaku 23, 90-97, 2005). There is expected the application of a compound inhibiting AKR1C3 to various morbid conditions including inflammatory diseases (Mol. Pharmacol 67, 60-68, 2005) (Current Pharmaceutical Design 10, 3505-3524, 2004) (J. Biol. Chem 273, 1855-1888, 1998).

SMILES strings stand for the structures. Structures can show the parent of a compound that is named as a salt.

T1 sequence (P80457 whole entry): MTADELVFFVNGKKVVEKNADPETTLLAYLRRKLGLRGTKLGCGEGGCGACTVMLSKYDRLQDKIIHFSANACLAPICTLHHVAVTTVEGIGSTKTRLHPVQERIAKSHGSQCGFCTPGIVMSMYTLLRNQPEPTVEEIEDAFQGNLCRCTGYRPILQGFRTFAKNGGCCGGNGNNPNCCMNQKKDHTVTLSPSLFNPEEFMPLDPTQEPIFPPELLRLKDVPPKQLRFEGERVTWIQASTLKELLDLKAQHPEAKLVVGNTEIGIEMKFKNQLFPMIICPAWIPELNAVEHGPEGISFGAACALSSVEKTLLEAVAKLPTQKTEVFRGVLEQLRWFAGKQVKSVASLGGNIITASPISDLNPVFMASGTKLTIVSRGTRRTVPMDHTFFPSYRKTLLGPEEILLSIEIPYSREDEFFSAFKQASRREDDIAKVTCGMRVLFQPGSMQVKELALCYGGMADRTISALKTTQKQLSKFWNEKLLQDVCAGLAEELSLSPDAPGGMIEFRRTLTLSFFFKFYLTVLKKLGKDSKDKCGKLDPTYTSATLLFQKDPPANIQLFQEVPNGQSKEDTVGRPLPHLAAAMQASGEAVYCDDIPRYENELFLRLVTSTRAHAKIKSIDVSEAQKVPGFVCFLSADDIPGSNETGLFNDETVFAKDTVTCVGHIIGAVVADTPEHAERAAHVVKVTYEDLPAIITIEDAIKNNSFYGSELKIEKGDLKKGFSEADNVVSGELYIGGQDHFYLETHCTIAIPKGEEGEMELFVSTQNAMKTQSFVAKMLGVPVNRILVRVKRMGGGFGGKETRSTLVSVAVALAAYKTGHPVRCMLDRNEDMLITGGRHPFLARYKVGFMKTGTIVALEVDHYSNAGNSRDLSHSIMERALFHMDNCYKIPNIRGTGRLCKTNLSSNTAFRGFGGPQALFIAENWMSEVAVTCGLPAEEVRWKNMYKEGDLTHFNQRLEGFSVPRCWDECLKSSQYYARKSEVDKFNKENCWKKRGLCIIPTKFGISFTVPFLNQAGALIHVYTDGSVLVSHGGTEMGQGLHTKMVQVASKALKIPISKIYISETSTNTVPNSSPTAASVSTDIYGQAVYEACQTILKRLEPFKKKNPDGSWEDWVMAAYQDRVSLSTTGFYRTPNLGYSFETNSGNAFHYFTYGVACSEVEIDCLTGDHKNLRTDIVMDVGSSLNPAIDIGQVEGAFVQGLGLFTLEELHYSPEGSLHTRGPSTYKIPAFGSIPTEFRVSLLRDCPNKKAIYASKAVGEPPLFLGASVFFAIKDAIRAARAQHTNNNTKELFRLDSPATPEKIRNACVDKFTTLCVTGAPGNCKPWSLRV

Broadly, the IC50 is the point on the concentration scale where inhibition reaches its midpoint. Consider `CSCCCOc1ccc(-c2cc(C(=O)O)ccn2)cc1C#N` [Example 3, 2-{3-cyano-4-[3-(methylthio)propoxy]phenyl}isonicotinic acid], for which, in series [1], the concentration for half-maximal inhibition (IC50) worked out at 5 nM. Still for that read-out and setting: under `N#Cc1cc(-c2cc(C(=O)O)ccn2)ccc1OCC(F)(F)F` [Example 13] stands 10 nM. For the compound `N#Cc1cc(-c2cc(C(=O)O)ccn2)ccc1N1CCCCCC1` [Example 4, 2-(4-azepan-1-yl-3-cyanophenyl)isonicotinic acid monohydrochloride], the “Suppression of increase of VEGF mRNA in the vitreous body” value in series [2] is on record as “significant suppressing action”. Moreover, the “Suppression of intestinal tissue weight increase” value in the series with TNBS-induced enteritis was ≥ 70%. Besides, the “Pyrimidine synthetic pathway inhibitory action (BUN level)” value in series [3] is “no inhibitory action”. For the same compound, the figures for the IC50 (at AKR1C3 (17βHSD5); in series [1]) were ≤ 1000 nM and 1.2 nM, respectively. As to `CC(C)COc1ccc(-c2cc(C(=O)O)c(Cl)cn2)cc1C#N` [Example 77], the IC50 in series [1] stood at 4 nM. With `CC1CCN(c2ccc(-c3cc(C(=O)O)ccn3)cc2C#N)CC1` [Example 45], the “Pyrimidine synthetic pathway inhibitory action (BUN level)” value in series [3] is on record as “no inhibitory action”. The IC50 in series [1] stood at 1.3 nM. With `COC1(C2CCCCC2)CCN(c2ccc(-c3cc(C(=O)O)ccn3)cc2C#N)CC1` [Example 67], the concentration for half-maximal inhibition (IC50) in series [1] came to 2.2 nM. On the same count and under the same terms, next, `N#Cc1cc(-c2cc(C(=O)O)ccn2)ccc1NC1CCCCCC1` [Example 63]: 1.1 nM. `CCCCN(C)c1ccc(-c2cc(C(=O)O)ccn2)cc1C#N` [Example 57]: the IC50 in series [1] is 3.1 nM. As for `CC(C)COc1ccc(-c2cc(C(=O)O)ccn2)cc1C#N` [Example 1, 2-(3-cyano-4-isobutoxyphenyl)isonicotinic acid], the IC50 in series [1] stood at 3.6 nM. On the same count and under the same terms, next, `CC(C)COc1ccc(-c2nccc(C(=O)O)c2F)cc1C#N` [Example 75]: 3.2 nM; `CC(C)COc1c(Br)cc(-c2cc(C(=O)O)ccn2)cc1C#N` [Example 79]: 5.8 nM; `CC1(C)CC(Oc2ccc(-c3cc(C(=O)O)ccn3)cc2C#N)CC(C)(C)C1` [Example 44]: 4.3 nM. Regarding `N#Cc1cc(-c2cc(C(=O)O)ccn2)ccc1OC1CCOCC1` [Example 14], the IC50 in series [1] was 4.1 nM. In the case of `CC(C)=CCOc1ccc(-c2cc(C(=O)O)ccn2)cc1C#N` [Example 72], the IC50 in series [1] worked out at 3.1 nM. As for `N#Cc1cc(-c2cc(C(=O)O)ccn2)ccc1OCc1ccccc1` [Example 9], in series [1], the IC50 was 2.6 nM. Still for that read-out and setting: under `CC(C)CSc1ccc(-c2cnccc2C(=O)O)cc1C#N` [Example 7, sodium 5-[3-cyano-4-(isobutylthio)phenyl]isonicotinate] stands 2.5 nM; under `N#Cc1cc(-c2cc(C(=O)O)ccn2)ccc1OCCOc1ccccc1` [Example 30], 4.2 nM. For `N#Cc1cc(-c2cc(C(=O)O)ccn2)ccc1OCCOc1cc(F)cc2c1OCCC2` [Example 33], in series [1], the IC50 was found to be 7.3 nM. In the case of `N#Cc1cc(-c2cc(C(=O)O)ccn2)ccc1N1CC=CCC1` [Example 49], in series [1], the IC50 is 2.8 nM. For `N#Cc1cc(-c2cc(C(=O)O)ccn2)ccc1OCc1ccccn1` [Example 21], the IC50 in series [1] is 10 nM.
